# Test: Fluorescence titration of compound 1 with Cu^2+ (Stern-Volmer plot, detection limit)
# Type: binding
# Procedure: All of the absorption and emission studies were carried out in mixed aqueous solutions of water and methanol (4:1) containing HEPES buffer (10 mM, pH 7.4) at a concentration of 20 μM and 0.2 μM respectively. Emission studies were carried out by addition of 10 equiv of various biologically and non-biologically relevant metal cations to an aqueous-MeOH (4:1) solution of compound 1 at a concentration level of 0.2 μM and their complexation abilities were studies by fluorescence. […] Importantly, none of the other cations induced any such distinct emission shift or quenching (FIG. 7). […] Fluorescence titration of compound 1 with Cu^2+ was carried out in aqueous MeOH (4:1) solution at a concentration level of 0.2 μM. The addition of Cu^2+ to the solution of compound 1 caused a complete quenching of the fluorescent emission and the peak at 525 nm (Φ=0.32) is “switched off” when excited at 502 nm (FIG. 9). […]
# Thus, it can be assumed that the quenching of the fluorescence of compound 1 by Cu^2+ ion is a static quenching mode due to the formation of a non-fluorescent complex in the ground state. […] From the Stern-Volmer linear plot (FIG. 14) the binding constant of compound 1 with Cu^2+ was calculated to be 1.0×10^7 L·mol^−1 (error limits≤10%).
compound,measurement,setting,value
"Cn1ccnc1/C=N/N1C(=O)c2ccccc2C12c1ccc(O)cc1Oc1cc(O)ccc12 [compound 1, Fluorescein-N-methylimidazole conjugate]",effect of Cu^2+ on fluorescence emission at 525 nm,"0.2 μM compound, excitation 502 nm",completely quenched
same,binding constant with Cu^2+ from Stern-Volmer linear plot,"H2O:MeOH (4:1), HEPES 10 mM, pH 7.4, λex=502 nm, error limits≤10%",1e+07 L/mol
